Data reported in article PMC7037393, “Synthesis, Structural, and Cytotoxic Properties of New Water-Soluble Copper(II) Complexes Based on 2,9-Dimethyl-1,10-Phenanthroline and Their One Derivative Containing 1,3,5-Triaza-7-Phosphaadamantane-7-Oxide” (Molecules, 2020).

Assays:
[1] = tested on: MCF7 (human breast adenocarcinoma); assay: Cytotoxicity on MCF7 cells, quantitative suspension test according to EN 14476; format: cell-based; details: observed 4 days, aqua media
Procedure: (§1) Normal human dermal fibroblasts (NHDF) (PromoCell, C-12302) were used as normal cells and LoVo (human colorectal adenocarcinoma, ATCC® CCL-229™), A549 (human lung carcinoma, ATCC, No. CCL-185 TM), MCF-7 (human breast adenocarcinoma, ATCC, No. HTB-22^TM) and HeLa (human cervix carcinoma, ATCC, No. CCL-2 TM) were used as cancer cells. They were cultured in DMEM, DMEM–F12 or EMEM (Lonza, CA, USA). Media were supplemented with 10% FBS (Biological Industries, Kibbutz Beit-Haemek, Israel), 2 mM L-glutamine (Biological Industries, Israel), 100 U/mL of penicillin and 100 µg/mL of streptomycin (Sigma, Neustadt an der Weinstrasse, Germany).
(§2) The 100 μL of suspension of NHDF, A549, HeLa, LoVo, and MCF7 cells at a density of 4 × 10^4 cells mL^−1 were incubated in a 96-well polystyrene plate (NUNC, Denmark) for 24 h. Product test solutions were prepared in DMEM, DMEM–F12, or EMEM supplemented with additional 2% FBS and 2 mM L-glutamine. Solutions of the reagents at concentrations from 460 (for 1), 454 (2), […] (3), 1242 (Cu(NO3)2), 1732 (PTA=O), and 1440 µM (dmphen) to 4.60 × 10^−6, 4.54 × 10^−6, 4.69 × 10^−6, 1.24 × 10^−5, 1.73 × 10^−5, and 1.44 × 10^−5 µM, respectively, were prepared and transferred (100 μL) into cell culture units (wells of microtiter plates) containing monolayer of cells. Eight units were inoculated with each dilution. Plates were incubated in 37 °C, 5% CO2 and observed daily for 4 days for the development of cytotoxic effect, using an inverted microscope (Olympus Corp., Hamburg, Germany, Axio Observer, Carl Zeiss MicroImaging GmbH). Then the wells were washed in phosphate buffered saline (PBS) and stained using DAPI (4′,6-diamidino-2-phenylindole) and propidium iodide (Merck, Darmstadt, Germany). The study used the fact that DAPI is able to be combined with cellular DNA, permeate through the membrane of cell, rapidly enter the nucleus of living cells and bind with DNA to form a DAPI-DNA complex. […] In cell culture these are cells that are apoptotic or damaged by any physical or chemical agent. Therefore, if these two fluorochrome are given at the same time, DAPI will get to healthy cells faster, while propidium iodide will stain dead or dying cells. The calculation of the ratio of cells counted on a specific area, allows to determine the potency of a substance in inhibiting a specific biological function (IC50).

NHDF cells = assay: Cytotoxicity on normal human dermal fibroblasts, quantitative suspension test according to EN 14476 (DAPI/propidium iodide); format: cell-based; details: observed 4 days, aqua media
Procedure: as §1, §2

[2] = tested on: HeLa (human cervix carcinoma); assay: Cytotoxicity on HeLa cells, quantitative suspension test according to EN 14476; format: cell-based; details: observed 4 days, aqua media
Procedure: as §1, §2

[3] = tested on: A549 (human lung carcinoma); assay: Cytotoxicity on A549 cells, quantitative suspension test according to EN 14476; format: cell-based; details: observed 4 days, aqua media
Procedure: as §1, §2

[4] = Solubility in water at 25 °C, stepwise water addition; format: physicochemical; details: H2O
Procedure: The copper complexes 1–3 were air stable in the solid state and at least for several days in H2O solutions. In a general procedure, the complex was dissolved in H2O in air atmosphere. […] Also UV-Vis spectra of water solutions of 1-3 confirm their stability in several days. […] After each addition of an amount of water (100 µL), the mixture was shaken for several minutes and then visually checked for any undissolved parts of the sample.

[5] = Octanol-water partition coefficient (log P), UV-Vis; format: physicochemical; details: room temperature, 10^−5 M
Procedure: The log P values consistent to the octanol-water partition coefficient were adjusted to the solubility properties of the compounds [94]. Complexes 1–3 were dissolved in water, previously saturated with octanol with concentrations 10^−5 M. Into a 25-mL flask at room temperature with a magnetic stir bar was introduced initially 5 mL of octanol previously saturated with water and then 5 mL of the complex solutions in water. A two-phase mixture was stirred vigorously for 15 min and samples, which were measured by UV-Vis spectroscopy, were taken from the separated phases.

[6] = tested on: LoVo (human colorectal adenocarcinoma); assay: Cytotoxicity on LoVo cells, quantitative suspension test according to EN 14476; format: cell-based; details: observed 4 days, aqua media
Procedure: as §1, §2

SMILES | IC50 [1] | IC50 (NHDF cells) | IC50 [2] | IC50 [3] | solubility in water S25 °C [4] | log P (octanol-water partition coefficient) [5] | IC50 [6]
CC#N.Cc1ccc2ccc3ccc(C)nc3c2n1.O=[N+]([O-])[O-].O=[N+]([O-])[O-].[Cu+2] [Complex 3, [Cu(NO3)2(dmphen)]∙MeCN] | 3450 ± 510 nM | 1720 ± 250 nM | 430 ± 60 nM | 430 ± 60 nM | 2.9 mg mL^−1 and ≈ 2.9 mg mL^−1 | 1.11 | 1720 ± 250 nM
Cc1ccc2ccc3ccc(C)nc3c2n1.F[P-](F)(F)(F)(F)F.O=P12CN3CN(CN(C3)C1)C2.O=[N+]([O-])[O-].[Cu+2] [Complex 1, [Cu(NO3)(PTA=O)(dmphen)][PF6]] | 570 ± 80 nM | 570 ± 80 nM | 1120 ± 160 nM | 290 ± 10 nM | 3.8 mg mL^−1 and ≈ 3.8 mg mL^−1 | 0.90 | 570 ± 80 nM
Cc1ccc2ccc3ccc(C)nc3c2n1.Cc1ccc2ccc3ccc(C)nc3c2n1.F[P-](F)(F)(F)(F)F.[Cl-].[Cu+2] [Complex 2, [Cu(Cl)(dmphen)2][PF6]] | 570 ± 80 nM | 230 ± 30 nM | 1130 ± 170 nM | 280 ± 40 nM | 2.5 mg mL^−1 and ≈ 2.5 mg mL^−1 | 1.75 | 1130 ± 170 nM
